Holding throughout (format): cell-based
The test system of one data set is HCT116 β/w. Kind of data set: Cytotoxicity assay (WST-8). To be noted: Homo sapiens, HCT-116, 96 h incubation. The procedure: (§1) Cells were seeded in 96-well culture plates (5,000 cells/well) and treated with titrated compounds in triplicate. After 96 h incubation, cell growth medium was removed and proliferation reagent WST-8 (Sigma) was added to each well and incubated at 37° C. for 1-3 h. Absorbance was then measured with a plate reader at 450 nm with correction at 650 nm. The results were expressed as the percentage of absorbance of treated wells versus that of vehicle control.

A further data set has as its system MIAPaCa-2. Kind of data set: Cytotoxicity assay (WST-8). As to conditions: Homo sapiens, MIA PaCa-2, 96 h incubation. The procedure:
as §1
For orientation: Formazan colour is commonly taken as a measure of viable cells.

Another data set relates to normal cell line WI-38. Kind of data set: Cytotoxicity assay, normal cell line. As to the method:
as §1, with “The cytotoxicity of the tested compounds in several cancer cell lines (HCT116 β/w, MIAPaCa-2, and MDA-MB-231) was determined by a cytotoxicity assay, where the results are provided in Table 1. Cells” for “Cells”, “control. IC50, the drug concentration causing 50% growth inhibition, was calculated via sigmoid curve fitting using GraphPad Prism 5.0.” for “control.”
(§2) The assay was then utilized to assess cytotoxicity of KH-3 against an expanded panel of cell lines (including normal cell line WI-38), where FIGS. 4A-4C provide the results.

Data set [1] has as its system panel of cancer cell lines. Put plainly: Cytotoxicity assay, expanded panel of cell lines. As to the method: as §1, with “The cytotoxicity of the tested compounds in several cancer cell lines (HCT116 β/w, MIAPaCa-2, and MDA-MB-231) was determined by a cytotoxicity assay, where the results are provided in Table 1. Cells” for “Cells”, “control. IC50, the drug concentration causing 50% growth inhibition, was calculated via sigmoid curve fitting using GraphPad Prism 5.0.” for “control.”
as §2

The test system of another data set is BxPC-3 cells. Kind of data set: MTT cell viability. As to conditions: Homo sapiens; BxPC-3, 48 hours. As to the method: (§3) Pancreatic cancer cell lines were obtained from the American Type Culture Collection (Manassas, Va.). hTERT-HPNE cells (immortalized human pancreatic ductal epithelial cells) were donated by Dr. Anant at the University of Kansas Medical Center. MTT assay was used for cell viability detection, with starting cell number in 96-well plate of 3000/well (for 72 h treatment) or 5000/well (for 48 h treatment).
(§4) Pancreatic cancer cell lines with different endogenous HuR expression levels were treated with serial concentrations of KH-3 for 48 hours. KH-3 induced cytotoxicity in pancreatic cancer cells, with the sensitivity correlated to endogenous HuR protein levels (FIG. 30). MIA PaCa2 cells have the highest HuR protein abundance among the tested cell lines and were the most sensitive to HuR treatment (IC50=5 μM). […] BxPC-3 cells, another human pancreatic cancer cell line, have HuR expression level in the middle, and the IC50 of KH-3 was in the middle (10 μM). A non-cancerous human pancreatic ductal epithelial cell line (hTERT-HPNE) was tested under the same conditions. hTERT-HPEN cells have the lowest abundance of HuR protein compared to the cancer cells, and the cytotoxicity of KH-3 to these cells were minimal (IC50>>40 μM). There is an inverse correlation in the tested cell lines between the HuR expression levels and the sensitivity to KH-3 treatment (FIG. 30) (R=−0.71 by Pearson Tests).

The next data set deals with MIA PaCa2 cells. Kind of data set: MTT cell viability. As to conditions: Homo sapiens, MIA PaCa-2; MIA PaCa2, 48 hours. The procedure:
as §3, §4

The test system of the next data set is PANC-1 cells. Put plainly: MTT cell viability. To be noted: Homo sapiens; PANC-1, 48 hours. As to the method: as §3, §4
The subject of data set [2] is hTERT-HPNE (non-cancerous human pancreatic ductal epithelial cell line). Kind of data set: MTT cell viability, non-cancerous cells. As to conditions: 48 hours. The procedure: as §3, §4

This is an account of results in US20230131501A1, “THERAPEUTIC USES OF INHIBITORS OF THE RNA-BINDING PROTEIN HuR” (University of Kansas, priority 2020, published 2023).

Consider `CC(C)(C)c1ccc(S(=O)(=O)Nc2ccc3sc(/C=C/C(=O)NO)cc3c2)cc1` [KH-3], for which the IC50 with HCT116 β/w is 3.6 µM; with MIAPaCa-2, 4.5 µM; in the data set on BxPC-3 cells, 10 µM; in the data set with MIA PaCa2 cells, 5 µM; with PANC-1 cells, 25 µM; in data set [2] it was greater than 40 µM. For the same compound, in the data set on normal cell line WI-38, the “concentration until which not cytotoxic” value was “about 100 μM”. Besides, in data set [1], the “cytotoxicity across a panel of cancer cell lines” value is reported as “potent cytotoxicity”.

One may read the IC50 as the point on the concentration scale where inhibition reaches its midpoint. Lower therefore signals greater potency in that assay.
